Test results as given in the supplement of paper PMC10331698.
± gives the standard deviation of the averaged measurements.

Columns and labels:
Experiment in all cases: level (log10 ratio to DMSO vehicle control); higher = higher biomarker level / cell amount than vehicle control
Conditions in all cases: in DMSO
[1] = compound: C=CC(=O)OCCC(F)(F)C(F)(F)C(F)(F)C(F)(F)F [2-(Perfluorobutyl)ethyl acrylate]
Protocol: (§1)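 BioMAP Diversity Plus panel of 12 human primary cell co-culture systems (3C, 4H, LPS, SAg, BT, BF4T, BE3C, CASM3C, HDF3CGF, KF3CT, MyoF, Mphg). Compounds were added 1 h before stimulation and left for 24 h (MyoF 48 h; BT 72 h for soluble read-outs or 6 d for IgG). Biomarkers were read by ELISA, cytotoxicity by SRB, PBMC viability and proliferation by Alamar Blue. Each well value was divided by the mean of 8 DMSO control wells on the same plate and log10 transformed; duplicate blinded samples were tested at 4 concentrations.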

[2] = compound: CNS(=O)(=O)C(F)(F)C(F)(F)C(F)(F)C(F)(F)C(F)(F)C(F)(F)C(F)(F)C(F)(F)F [N-Methylperfluorooctanesulfonamide]
Protocol: as §1

[3] = compound: FC(F)(F)C(F)(F)C(F)(F)C(F)(F)C(F)(F)C(F)(F)C(F)(F)CCI [1-Iodo-1H,1H,2H,2H-perfluorononane]
Protocol: as §1

Perfluorooctanamidine = compound: N=C(N)C(F)(F)C(F)(F)C(F)(F)C(F)(F)C(F)(F)C(F)(F)C(F)(F)F [Perfluorooctanamidine]
Protocol: as §1

[4] = compound: O=C(O)C(F)(F)OC(F)(F)C(F)(F)OC(F)(F)C(F)(F)C(F)(F)C(F)(F)F [Perfluoro-3,6-dioxadecanoic acid]
Protocol: as §1

[5] = compound: O=C(O)CCC(F)(F)C(F)(F)C(F)(F)F [3:3 Fluorotelomer carboxylic acid]
Protocol: as §1

[6] = compound: OCC(F)(F)C(F)(F)C(F)(F)C(F)(F)C(F)(F)C(F)F [1H,1H,7H-Dodecafluoro-1-heptanol]
Protocol: as §1

| Test System | level (log10) ([1]; 6700 nM) | level (log10) ([1]; 20000 nM) | level (log10) ([1]; 60000 nM) | level (log10) ([2]; 6700 nM) | level (log10) ([2]; 20000 nM) | level (log10) ([2]; 60000 nM) | level (log10) ([3]; 6700 nM) | level (log10) ([3]; 20000 nM) | level (log10) (Perfluorooctanamidine; 6700 nM) | level (log10) (Perfluorooctanamidine; 20000 nM) | level (log10) (Perfluorooctanamidine; 60000 nM) | level (log10) ([4]; 6700 nM) | level (log10) ([4]; 20000 nM) | level (log10) ([4]; 60000 nM) | level (log10) ([5]; 6700 nM) | level (log10) ([5]; 20000 nM) | level (log10) ([5]; 60000 nM) | level (log10) ([6]; 6700 nM) | level (log10) ([6]; 20000 nM) | level (log10) ([6]; 60000 nM) |
| --- | --- | --- | --- | --- | --- | --- | --- | --- | --- | --- | --- | --- | --- | --- | --- | --- | --- | --- | --- | --- |
| BT:PBMC Cytotoxicity | -0.028 ± 0.0014 | -0.073 ± 0.018 | -0.251 ± 0.057 | 0.0045 ± 0.019 | 0.016 ± 0.0099 | 0.0445 ± 0.011 | 0.0115 ± 0.0035 | 0.0115 ± 0.011 | 0.005 | 0 ± 0.031 | 0.006 | 0.017 ± 0.028 | 0.0265 ± 0.0021 | 0.0915 ± 0.005 | 0.0035 ± 0.0064 | 0.012 ± 0.017 | 0.018 ± 0.014 | -0.0155 ± 0.0021 | -0.016 ± 0.013 | -0.049 ± 0.0028 |
| BE3C:IL-1alpha | -0.0035 ± 0.022 | -0.0305 ± 0.03 | -0.012 ± 0.0057 | 0.0325 ± 0.005 | 0.042 ± 0.013 | 0.0695 ± 0.005 | -0.0075 ± 0.0078 | 0.0075 ± 0.026 | 0.0065 ± 0.026 | 0.002 ± 0.0028 | 0.047 | -0.0135 ± 0.0021 | -0.0005 ± 0.0078 | -0.165 ± 0.021 | 0.0135 ± 0.037 | 0.0255 ± 0.039 | 0.0155 ± 0.035 | 0.0085 ± 0.021 | 0.0045 ± 0.0092 | 0.024 ± 0.0057 |
| BF4T:uPA | -0.008 ± 0.028 | -0.009 ± 0.02 | -0.022 ± 0.03 | 0.0055 ± 0.0064 | 0.01 ± 0.014 | 0.0385 ± 0.028 | -0.011 ± 0.035 | -0.012 ± 0.033 | -0.0185 ± 0.005 | -0.0225 ± 0.011 | 0.05 | 0.0105 ± 0.005 | 0.008 ± 0.013 | 0.025 ± 0.031 | 0.0025 ± 0.016 | 0 ± 0.011 | -0.01 ± 0.031 | -0.0125 ± 0.019 | -0.0145 ± 0.0021 | -0.002 ± 0.0014 |
| LPS:CD69 | -0.0225 ± 0.015 | -0.017 ± 0.041 | -0.049 ± 0.041 | -0.068 ± 0.016 | -0.0725 ± 0.0092 | -0.0725 ± 0.0035 | -0.0145 ± 0.026 | -0.0065 ± 0.063 | -0.025 ± 0.045 | -0.0395 ± 0.04 | -0.132 | -0.009 ± 0.0099 | -0.0425 ± 0.026 | -0.191 ± 0.088 | -0.0345 ± 0.09 | -0.016 ± 0.052 | -0.0435 ± 0.061 | -0.002 ± 0.096 | -0.0005 ± 0.076 | 0.0005 ± 0.079 |
| LPS:CCL2/MCP-1 | -0.0075 ± 0.0035 | -0.02 ± 0.0085 | -0.0255 ± 0.029 | -0.0135 ± 0.0035 | 0.0125 ± 0.0021 | 0.006 ± 0.021 | -0.008 ± 0.016 | 0.0145 ± 0.04 | -0.0005 ± 0.021 | -0.003 ± 0.0028 | -0.023 | 0.008 ± 0.0085 | 0.0005 ± 0.0078 | -0.042 ± 0.05 | 0.001 ± 0.023 | -0.0025 ± 0.015 | 0.0135 ± 0.013 | 0.002 ± 0.0014 | -0.0125 ± 0.0078 | -0.0005 ± 0.018 |
| 3C:Proliferation | -0.0445 ± 0.049 | -0.088 ± 0.028 | -0.304 ± 0.07 | -0.024 ± 0.02 | -0.125 ± 0.041 | -0.338 ± 0.16 | -0.019 ± 0.0085 | -0.027 ± 0.0057 | -0.0395 ± 0.018 | -0.054 ± 0.028 | -0.194 | -0.0105 ± 0.0035 | 0.0325 ± 0.022 | -0.369 ± 0.13 | -0.0215 ± 0.054 | -0.0175 ± 0.091 | 0.0195 ± 0.049 | -0.0365 ± 0.091 | -0.0885 ± 0.07 | -0.034 ± 0.045 |
| BF4T:CD54/ICAM-1 | -0.0085 ± 0.0078 | -0.013 ± 0.0099 | -0.064 ± 0.014 | 0.009 ± 0.024 | 0.013 ± 0.0085 | 0.028 ± 0.011 | -0.007 ± 0.018 | -0.0345 ± 0.0064 | -0.001 ± 0.0085 | -0.006 ± 0.017 | 0.039 | -0.04 ± 0.0057 | -0.0335 ± 0.0035 | -0.0365 ± 0.005 | -0.0075 ± 0.0092 | 0.007 | -0.008 ± 0.0071 | 0.0045 ± 0.0064 | 0.004 ± 0.014 | 0.006 ± 0.013 |
